Experimental findings from US8063231B2, “Methods of treating alpha adrenergic mediated conditions” (Allergan, Inc., priority 2008, dated 2011) are described below.

Molecules are shown by their SMILES. Values joined by “and” are separate entries in the source; they are usually repeats but may differ in a detail not shown here. Equal entries are not always repeated.

The test system of one series is wild type rats. Put plainly: Sedative effects (total activity counts) after intraperitoneal injection. Conditions: for Sedative Effect (IP): 30 minutes post injection. Format: in vivo, rat. As for the experimental part:
FIG. 2 depicts sedative effects (total activity counts) 30 minutes post intraperitoneal injection of 1 mg/kg and 10 mg/kg doses of N-(2,3-dichlorobenzyl)-4,5-dihydro-1H-imidazol-2-amine.
Data was acquired from wild type rats administered N-(2,3-dichlorobenzyl)-4,5-dihydro-1H-imidazol-2-amine intraperitoneally (IP). Rats were split into groups of six and administered 1 mg/kg or 10 mg/kg doses of N-(2,3-dichlorobenzyl)-4,5-dihydro-1H-imidazol-2-amine to assess the sedative effects of the administration of the agent.

A further series deals with Chung model rats. The series can be described thus: Tactile allodynia reversal in Chung model of chronic pain (spinal nerve ligation, von Frey hairs). The class given is in vivo, rat. As for the experimental part:
Various concentrations of N-(2,3-dichlorobenzyl)-4,5-dihydro-1H-imidazol-2-amine were administered orally to Chung model rats. A model in accordance with Kim and Chung 1992, Pain […], pp 355-363 (Chung model), for chronic pain (in particular peripheral neuropathy) involves the surgical ligation of the L5 (and optionally the L6) spinal nerves on one side in experimental animals. Rats recovering from the surgery gain weight and display a level of general activity similar to that of normal rats. However, these rats develop abnormalities of the foot, wherein the hindpaw is moderately everted and the toes are held together. More importantly, the hindpaw on the side affected by the surgery appears to become sensitive to pain from low-threshold mechanical stimuli, such as that producing a faint sensation of touch in a human, within about 1 week following surgery. This sensitivity to normally non-painful touch is called “tactile allodynia” and lasts for at least two months. The response includes lifting the affected hindpaw to escape from the stimulus, licking the paw and holding it in the air for many seconds. None of these responses is normally seen in the control group.
Rats are anesthetized before surgery. The surgical site is shaved and prepared either with betadine or Novacaine. Incision is made from the thoracic vertebra XIII down toward the sacrum. Muscle tissue is separated from the spinal vertebra (left side) at the L4-S2 levels. The L6 vertebra is located and the transverse process is carefully removed with a small rongeur to expose the L4-L6 spinal nerves. The L5 and L6 spinal nerves are isolated and tightly ligated with 6-0 silk thread. The same procedure is done on the right side as a control, except no ligation of the spinal nerves is performed.
A complete hemostasis is confirmed, then the wounds are sutured. A small amount of antibiotic ointment is applied to the incised area, and the rat is transferred to the recovery plastic cage under a regulated heat-temperature lamp. On the day of the experiment, at least seven days after the surgery, typically six rats per test group are administered the test drugs by intraperitoneal (i.p.) injection or oral gavage. […], the compounds are formulated in d H2O and given in a volume of 1 ml/kg body weight using an 18-gauge, 3 inch gavage needle that is slowly inserted through the esophagus into the stomach.
Tactile allodynia is measured prior to and 30 minutes after drug administration using von Frey hairs that are a series of fine hairs with incremental differences in stiffness. Rats are placed in a plastic cage with a wire mesh bottom and allowed to acclimate for approximately 30 minutes. The von Frey hairs are applied perpendicularly through the mesh to the mid-plantar region of the rats' hindpaw with sufficient force to cause slight buckling and held for 6-8 seconds. The applied force has been calculated to range from 0.41 to 15.1 grams. If the paw is sharply withdrawn, it is considered a positive response. A normal animal will not respond to stimuli in this range, but a surgically ligated paw will be withdrawn in response to a 1-2 gram hair. The 50% paw withdrawal threshold is determined using the method of Dixon, W. J., Ann. Rev. Pharmacol. Toxicol. 20:441-462 (1980) hereby incorporated by reference. The post-drug threshold is compared to the pre-drug threshold and the percent reversal of tactile sensitivity is calculated based on a normal threshold of 15.1 grams.

For the molecule `Clc1cccc(CNC2=NCCN2)c1Cl` [N-(2,3-dichlorobenzyl)-4,5-dihydro-1H-imidazol-2-amine], the “Sedative Effect (IP)” value is on record as “No significant effect” with wild type rats (1 mg/kg IP) and 23% sedating in the series with wild type rats (10 mg/kg IP). Besides, the “Sedative effect (in words)” value in the series on wild type rats (10 mg/kg IP) was “significant sedative effect”. For the same molecule, the “Peak Allodynia Reversal (Oral, 30 min.)” value is 28% and 28% +/− 9.5% in the series with Chung model rats (30 μg/kg oral); 68% +/− 12.7% with Chung model rats (100 μg/kg oral); 84% +/− 7.5% in the series on Chung model rats (300 μg/kg oral). In addition, the “Time at which analgesic effect was seen (peak percent allodynia reversal)” value in the series on Chung model rats (single oral dose, FIG. 1) is reported as “about 30 minutes”. Moreover, in the series on Chung model rats (single oral dose, FIG. 1), the “Time of decrease of allodynia reversal to baseline” value is recorded as “about 120 minutes”.
